Experimental data as given in patent US20220347167A1, “A NEW TREATMENT FOR MEIBOMIAN GLAND DYSFUNCTION” (The Schepens Eye Research Institute, Inc., priority 2019, published 2022).

Key:
Type in all cases: cell-based, human
[1] = tested on: HIF1α; assay: HIF1α expression in IHMGECs by western blot; parameters: HIF1α accumulation in IHMGECs, combination of Roxa and low O2: dose or concentration left out as unconfirmed
Protocol: Authenticated IHMGECs were grown and passaged in keratinocyte serum-free medium (KSFM) with 5 ng/mL epidermal growth factor (EGF) and 50 μg/mL bovine pituitary extract (BPE) (Thermo Fisher Scientific, Waltham, Mass.) under 21% O2 (normoxia) [Liu et al. (2010) Investigative ophthalmology & visual science 51:3993-4005; McDermott et al. (2018) Current eye research 43:1097-1101; Liu et al. (2013) Investigative ophthalmology & visual science 54:2541-2550]. Upon reaching 60% to 70% confluence, culture media were replaced by a 1:1 mixture of Dulbecco's modified Eagle's medium and Ham's F12 (DMEM/F12, Corning Life Sciences, Tewksbury, Mass.), supplemented with 10% fetal bovine serum (FBS, Atlanta Biologicals, Flowery Branch, Ga.) [Sullivan et al. (2014) Investigative ophthalmology & visual science 55:3866-3877; Liu et al. (2014) JAMA ophthalmology 132:226-228]. […] Culture plates of cells in the hypoxic condition were incubated inside hypoxia chambers filled with a premade 1% O2, 5% CO2 and 94% N2 gas mixture (Linde Gas North America, Hammond, Ind.), according to published protocols in Liu et al. (2019) The ocular surface 17(2):310-317 and Wright and Shay (2006) Nat Protoc 1:2088-2090. Following cell medium changes, the chambers were re-flushed with the gas mixture before returning to the incubator. […] Cell culture experiments (n=3 wells/treatment) were repeated at least 3 times.
[…] The cells were lysed in 2× Laemmli sample buffer (Bio-Rad Laboratories, Hercules, Calif.) and sonicated to extract nuclear protein [Andersen et al. (2002) Current biology: CB 12:1-11]. Human hepatocellular carcinoma cell lines (HepG2 cells) (America Type Culture Collection, Manassas, Va.), which express high concentration of HIF1α under CoCl2 stimulation for 4 hours [Yoo et al. (2014) Journal of cellular biochemistry 115:1147-1158], were used as a positive control for HIF1α antibody. The CoCl2 was purchased from Sigma-Aldrich Corp (St. Louis, Mo.). Cell lysates were then evaluated for HIF1α (1:1000, BD Biosciences, San Jose, Calif.) or β-actin (1:10,000, Cell Signaling Technology) expression. […]

[2] = tested on: DNase II; assay: DNase II activity by single radial enzyme diffusion assay (SREDA) in IHMGECs
Protocol: (§1) After being treated with 21% O2, 1% O2, 10 μM Roxa or a combination for 10 days, cell numbers were counted with a hemocytometer and the cell lysates and cell culture supernatants were collected, as previously described in Liu et al. (2019) The ocular surface 17(2):310-317. DNase II activity in fresh samples was analyzed by SREDA in agarose gels according to published protocols in Liu et al. (2019) The ocular surface 17(2):310-317 and Oka et al. (2012) Nature 485:251-255. Cell lysates and culture media were used to measure the DNase II activity inside and outside of the cells, respectively [Liu et al. (2019) The ocular surface 17(2):310-317]. After incubation for 3-24 hours at 37° C., the area of the dark circle in the gel was measured under an UV trans-illuminator at 312 nm. For comparison between conditions, values were normalized to cell number.
(§2) Low O2 increases DNase II activity and promotes cell terminal differentiation of IHMGECs (Liu et al. Ocul Surf 2019; 17:310-317). To determine whether Roxa treatment can reproduce this hypoxic effect, IHMGECs were treated with Roxa in both normoxic and 1% O2 conditions for 10 days, prior to counting cell numbers and analyzing DNase II activity in cell lysates and supernatants.

[3] = tested on: IHMGECs; assay: Cell number of IHMGECs (hemocytometer)
Protocol: as §1, §2

[4] = Roxa alone, 21% O2, 10 days, normalized to cell number

DNase II activity in IHMGEC culture supernatants [2, 4]: significantly increased
DNase II activity in IHMGEC lysates [2, 4]: significantly increased
magnitude of DNase II activity increase, Roxa and low O2 combination ([2]; Roxa in 1% O2, 10 days, lysates and supernatants, vs 1% O2 alone and Roxa alone): greatest
Structure (SMILES): Cc1nc(C(=O)NCC(=O)O)c(O)c2ccc(Oc3ccccc3)cc12 [Roxa, roxadustat]
HIF1α expression in IHMGECs, Roxa compared with low O2 alone ([1]; 21% O2, 6 hours, vs 1% O2 alone): significantly more HIF1α expression than low O2 alone
HIF1α accumulation in IHMGECs, combination of Roxa and low O2 ([1]; 6 hours): greatest accumulation
HIF1α expression in IHMGECs (band intensity normalized to β-actin) ([1]; Roxa (10 μM elsewhere in the source), normoxic 21% O2, 6 hours, vs control): significantly increased
cell number of IHMGECs ([3]; Roxa alone, 21% O2, 10 days): significant decreases
cell number of IHMGECs, combination of Roxa and 1% O2 ([3]; Roxa in 1% O2, 10 days): significant decreases
